Results as given in the NIST ThermoML archive (doi:10.1021/je400722h).
Numbers after ± are expanded uncertainties.

Assays:
[1] = xn = mol fraction of the nth substance listed; conditions: 101 kPa, Liquid; for speed of sound: Pulse-echo method; for mass density: Vibrating tube method
[2] = molar heat capacity at constant pressure; xn = mol fraction of the nth substance listed; conditions: 101 kPa, Liquid, Small sample (50 mg) DSC

Cc1ccccc1Cl [2-chlorotoluene] + C1COCO1
Conditions | mass density [kg/m3] | molar heat capacity at constant pressure [J/K/mol] | speed of sound [m/s]
[1], 298.15 K, x1 = 0.0902 | 1061.1 ± 1 | – | 1326.8 ± 1.1
[1], 298.15 K, x1 = 0.1536 | 1062.6 ± 1 | – | 1320 ± 1.1
[1], 298.15 K, x1 = 0.2167 | 1064 ± 1 | – | 1314.3 ± 1.1
[1], 298.15 K, x1 = 0.2734 | 1065.2 ± 1 | – | 1310.1 ± 1.1
[1], 298.15 K, x1 = 0.3169 | 1066.1 ± 1 | – | 1307.4 ± 1.1
[1], 298.15 K, x1 = 0.3843 | 1067.5 ± 1 | – | 1303.8 ± 1.1
[1], 298.15 K, x1 = 0.4301 | 1068.4 ± 1 | – | 1301.9 ± 1.1
[1], 298.15 K, x1 = 0.4831 | 1069.4 ± 1 | – | 1300.1 ± 1.1
[1], 298.15 K, x1 = 0.5278 | 1070.2 ± 1 | – | 1298.9 ± 1.1
[1], 298.15 K, x1 = 0.5834 | 1071.2 ± 1 | – | 1297.8 ± 1.1
[1], 298.15 K, x1 = 0.6265 | 1071.9 ± 1 | – | 1297.3 ± 1.1
[1], 298.15 K, x1 = 0.6793 | 1072.7 ± 1 | – | 1296.8 ± 1.1
[1], 298.15 K, x1 = 0.7315 | 1073.6 ± 1 | – | 1296.6 ± 1.2
[1], 298.15 K, x1 = 0.7829 | 1074.4 ± 1 | – | 1296.7 ± 1.2
[1], 298.15 K, x1 = 0.8242 | 1075 ± 1 | – | 1296.9 ± 1.2
[1], 298.15 K, x1 = 0.8565 | 1075.4 ± 1 | – | 1297.1 ± 1.2
[1], 298.15 K, x1 = 0.9013 | 1076 ± 1 | – | 1297.5 ± 1.2
[1], 298.15 K, x1 = 0.9325 | 1076.5 ± 1 | – | 1297.8 ± 1.2
[1], 298.15 K, x1 = 1 | 1077.3 ± 1 | – | 1298.7 ± 1.2
[1], 303.15 K, x1 = 0.0902 | 1054.9 ± 1 | – | 1304.4 ± 1.1
[1], 303.15 K, x1 = 0.1536 | 1056.4 ± 1 | – | 1297.8 ± 1.1
[1], 303.15 K, x1 = 0.2167 | 1057.9 ± 1 | – | 1292.5 ± 1.1
[1], 303.15 K, x1 = 0.2734 | 1059.3 ± 1 | – | 1288.8 ± 1.1
[1], 303.15 K, x1 = 0.3169 | 1060.2 ± 1 | – | 1286.4 ± 1.1
[1], 303.15 K, x1 = 0.3843 | 1061.7 ± 1 | – | 1283.5 ± 1.1
[1], 303.15 K, x1 = 0.4301 | 1062.7 ± 1 | – | 1281.9 ± 1.1
[1], 303.15 K, x1 = 0.4831 | 1063.7 ± 1 | – | 1280.3 ± 1.1
[1], 303.15 K, x1 = 0.5278 | 1064.6 ± 1 | – | 1279.3 ± 1.1
[1], 303.15 K, x1 = 0.5834 | 1065.7 ± 1 | – | 1278.4 ± 1.1
[1], 303.15 K, x1 = 0.6265 | 1066.5 ± 1 | – | 1277.9 ± 1.1
[1], 303.15 K, x1 = 0.6793 | 1067.4 ± 1 | – | 1277.4 ± 1.1
[1], 303.15 K, x1 = 0.7315 | 1068.3 ± 1 | – | 1277.3 ± 1.2
[1], 303.15 K, x1 = 0.7829 | 1069.1 ± 1 | – | 1277.4 ± 1.2
[1], 303.15 K, x1 = 0.8242 | 1069.8 ± 1 | – | 1277.6 ± 1.2
[1], 303.15 K, x1 = 0.8565 | 1070.3 ± 1 | – | 1277.8 ± 1.2
[1], 303.15 K, x1 = 0.9013 | 1071 ± 1 | – | 1278.5 ± 1.2
[1], 303.15 K, x1 = 0.9325 | 1071.5 ± 1 | – | 1279 ± 1.2
[1], 303.15 K, x1 = 1 | 1072.5 ± 1 | – | 1280.7 ± 1.2
[1], 308.15 K, x1 = 0.0902 | 1048.7 ± 1 | – | 1281.7 ± 1.1
[1], 308.15 K, x1 = 0.1536 | 1050.4 ± 1 | – | 1275.2 ± 1.1
[1], 308.15 K, x1 = 0.2167 | 1052 ± 1 | – | 1270.4 ± 1.1
[1], 308.15 K, x1 = 0.2734 | 1053.4 ± 1 | – | 1267 ± 1.1
[1], 308.15 K, x1 = 0.3169 | 1054.4 ± 1 | – | 1265.1 ± 1.1
[1], 308.15 K, x1 = 0.3843 | 1055.9 ± 1 | – | 1262.7 ± 1.1
[1], 308.15 K, x1 = 0.4301 | 1057 ± 1 | – | 1261.4 ± 1.1
[1], 308.15 K, x1 = 0.4831 | 1058.1 ± 1 | – | 1260.3 ± 1.1
[1], 308.15 K, x1 = 0.5278 | 1059 ± 1 | – | 1259.6 ± 1.1
[1], 308.15 K, x1 = 0.5834 | 1060.2 ± 1 | – | 1258.7 ± 1.1
[1], 308.15 K, x1 = 0.6265 | 1061 ± 1 | – | 1258.3 ± 1.1
[1], 308.15 K, x1 = 0.6793 | 1062 ± 1 | – | 1258 ± 1.1
[1], 308.15 K, x1 = 0.7315 | 1063 ± 1 | – | 1257.8 ± 1.1
[1], 308.15 K, x1 = 0.7829 | 1063.9 ± 1 | – | 1257.9 ± 1.2
[1], 308.15 K, x1 = 0.8242 | 1064.7 ± 1 | – | 1258.1 ± 1.2
[1], 308.15 K, x1 = 0.8565 | 1065.2 ± 1 | – | 1258.5 ± 1.2
[1], 308.15 K, x1 = 0.9013 | 1066 ± 1 | – | 1259.3 ± 1.2
[1], 308.15 K, x1 = 0.9325 | 1066.5 ± 1 | – | 1260.1 ± 1.2
[1], 308.15 K, x1 = 1 | 1067.6 ± 1 | – | 1262.7 ± 1.2
[2], 298.15 K, x1 = 0.0865 | – | 127.97 ± 2 | –
[2], 298.15 K, x1 = 0.1145 | – | 129.85 ± 2 | –
[2], 298.15 K, x1 = 0.1386 | – | 131.45 ± 2 | –
[2], 298.15 K, x1 = 0.1829 | – | 134.37 ± 2.1 | –
[2], 298.15 K, x1 = 0.2145 | – | 136.42 ± 2.1 | –
[2], 298.15 K, x1 = 0.2573 | – | 139.17 ± 2.2 | –
[2], 298.15 K, x1 = 0.2965 | – | 141.65 ± 2.2 | –
[2], 298.15 K, x1 = 0.3217 | – | 143.22 ± 2.2 | –
[2], 298.15 K, x1 = 0.3506 | – | 144.99 ± 2.2 | –
[2], 298.15 K, x1 = 0.3902 | – | 147.38 ± 2.3 | –
[2], 298.15 K, x1 = 0.4216 | – | 149.24 ± 2.3 | –
[2], 298.15 K, x1 = 0.4654 | – | 151.78 ± 2.4 | –
[2], 298.15 K, x1 = 0.5007 | – | 153.78 ± 2.4 | –
[2], 298.15 K, x1 = 0.5418 | – | 156.06 ± 2.4 | –
[2], 298.15 K, x1 = 0.5905 | – | 158.68 ± 2.5 | –
[2], 298.15 K, x1 = 0.6218 | – | 160.32 ± 2.5 | –
[2], 298.15 K, x1 = 0.663 | – | 162.44 ± 2.5 | –
[2], 298.15 K, x1 = 0.6902 | – | 163.81 ± 2.5 | –
[2], 298.15 K, x1 = 0.7118 | – | 164.88 ± 2.5 | –
[2], 298.15 K, x1 = 0.7534 | – | 166.91 ± 2.6 | –
[2], 298.15 K, x1 = 0.7927 | – | 168.78 ± 2.6 | –
[2], 298.15 K, x1 = 0.8426 | – | 171.11 ± 2.6 | –
[2], 298.15 K, x1 = 0.8914 | – | 173.35 ± 2.7 | –
[2], 298.15 K, x1 = 0.9206 | – | 174.66 ± 2.7 | –
[2], 303.15 K, x1 = 0.0865 | – | 129.15 ± 2 | –
[2], 303.15 K, x1 = 0.1145 | – | 131.07 ± 2 | –
[2], 303.15 K, x1 = 0.1386 | – | 132.71 ± 2.1 | –
[2], 303.15 K, x1 = 0.1829 | – | 135.68 ± 2.1 | –
[2], 303.15 K, x1 = 0.2145 | – | 137.77 ± 2.1 | –
[2], 303.15 K, x1 = 0.2573 | – | 140.56 ± 2.2 | –
[2], 303.15 K, x1 = 0.2965 | – | 143.06 ± 2.2 | –
[2], 303.15 K, x1 = 0.3217 | – | 144.65 ± 2.2 | –
[2], 303.15 K, x1 = 0.3506 | – | 146.45 ± 2.3 | –
[2], 303.15 K, x1 = 0.3902 | – | 148.87 ± 2.3 | –
[2], 303.15 K, x1 = 0.4216 | – | 150.75 ± 2.3 | –
[2], 303.15 K, x1 = 0.4654 | – | 153.32 ± 2.4 | –
[2], 303.15 K, x1 = 0.5007 | – | 155.35 ± 2.4 | –
[2], 303.15 K, x1 = 0.5418 | – | 157.66 ± 2.4 | –
[2], 303.15 K, x1 = 0.5905 | – | 160.33 ± 2.5 | –
[2], 303.15 K, x1 = 0.6218 | – | 162.01 ± 2.5 | –
[2], 303.15 K, x1 = 0.663 | – | 164.17 ± 2.5 | –
[2], 303.15 K, x1 = 0.6902 | – | 165.56 ± 2.6 | –
[2], 303.15 K, x1 = 0.7118 | – | 166.65 ± 2.6 | –
[2], 303.15 K, x1 = 0.7534 | – | 168.72 ± 2.6 | –
[2], 303.15 K, x1 = 0.7927 | – | 170.62 ± 2.6 | –
[2], 303.15 K, x1 = 0.8426 | – | 172.98 ± 2.7 | –
[2], 303.15 K, x1 = 0.8914 | – | 175.22 ± 2.7 | –
[2], 303.15 K, x1 = 0.9206 | – | 176.53 ± 2.7 | –
[2], 308.15 K, x1 = 0.0865 | – | 130.3 ± 2 | –
[2], 308.15 K, x1 = 0.1145 | – | 132.27 ± 2 | –
[2], 308.15 K, x1 = 0.1386 | – | 133.94 ± 2.1 | –
[2], 308.15 K, x1 = 0.1829 | – | 136.97 ± 2.1 | –
[2], 308.15 K, x1 = 0.2145 | – | 139.09 ± 2.1 | –
[2], 308.15 K, x1 = 0.2573 | – | 141.91 ± 2.2 | –
[2], 308.15 K, x1 = 0.2965 | – | 144.45 ± 2.2 | –
[2], 308.15 K, x1 = 0.3217 | – | 146.05 ± 2.3 | –
[2], 308.15 K, x1 = 0.3506 | – | 147.87 ± 2.3 | –
[2], 308.15 K, x1 = 0.3902 | – | 150.31 ± 2.3 | –
[2], 308.15 K, x1 = 0.4216 | – | 152.22 ± 2.4 | –
[2], 308.15 K, x1 = 0.4654 | – | 154.82 ± 2.4 | –
[2], 308.15 K, x1 = 0.5007 | – | 156.88 ± 2.4 | –
[2], 308.15 K, x1 = 0.5418 | – | 159.23 ± 2.5 | –
[2], 308.15 K, x1 = 0.5905 | – | 161.94 ± 2.5 | –
[2], 308.15 K, x1 = 0.6218 | – | 163.64 ± 2.5 | –
[2], 308.15 K, x1 = 0.663 | – | 165.83 ± 2.6 | –
[2], 308.15 K, x1 = 0.6902 | – | 167.25 ± 2.6 | –
[2], 308.15 K, x1 = 0.7118 | – | 168.36 ± 2.6 | –
[2], 308.15 K, x1 = 0.7534 | – | 170.46 ± 2.6 | –
[2], 308.15 K, x1 = 0.7927 | – | 172.38 ± 2.7 | –
[2], 308.15 K, x1 = 0.8426 | – | 174.76 ± 2.7 | –
[2], 308.15 K, x1 = 0.8914 | – | 177 ± 2.7 | –
[2], 308.15 K, x1 = 0.9206 | – | 178.31 ± 2.8 | –
